Measured values published in PubChem BioAssay (NCI).
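Values below derive from 48-hour exposures of cells grown in 96-well plates, with endpoints linearly interpolated between the two concentrations bracketing the appropriate inhibition level. Abbreviation: GI50, concentration required for 50% inhibition of growth. TGI denotes the concentration required for complete inhibition of growth.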

Legend:
Assay in all cases: NCI-60 cell line screen, 48 h
SNB-75 CNS = tested on: SNB-75 CNS
SF-268 CNS = tested on: SF-268 CNS
U251 CNS = tested on: U251 CNS
MOLT-4 leukemia = tested on: MOLT-4 leukemia
SW-620 colon = tested on: SW-620 colon
HT29 colon = tested on: HT29 colon
COLO 205 colon = tested on: COLO 205 colon
HOP-62 NSCLC = tested on: HOP-62 NSCLC
HCT-15 colon = tested on: HCT-15 colon
SK-MEL-2 melanoma = tested on: SK-MEL-2 melanoma

Row | SMILES | TGI (SNB-75 CNS) | TGI (SF-268 CNS) | TGI (U251 CNS) | TGI (MOLT-4 leukemia) | TGI (SW-620 colon) | TGI (HT29 colon) | TGI (COLO 205 colon) | TGI (HOP-62 NSCLC) | TGI (HCT-15 colon) | TGI (SK-MEL-2 melanoma) | GI50 (SNB-75 CNS) | GI50 (U251 CNS) | GI50 (HOP-62 NSCLC) | GI50 (HCT-15 colon) | GI50 (SF-268 CNS) | GI50 (MOLT-4 leukemia) | GI50 (SW-620 colon) | GI50 (HT29 colon) | GI50 (COLO 205 colon) | GI50 (SK-MEL-2 melanoma)
1 | CC(=O)OC/C=C/Cn1ncc(=O)[nH]c1=O | > 100 µM | > 100 µM | > 100 µM | > 100 µM | > 100 µM | > 100 µM | > 100 µM | > 100 µM | > 100 µM | > 100 µM |  |  |  |  |  |  |  |  |  | 
2 | Nc1nncc2c1ccn2C1OC(CO)C(O)C1O (stereo not drawn) | > 100 µM | > 100 µM | > 100 µM | > 100 µM | > 100 µM | > 100 µM | > 100 µM | > 100 µM | > 100 µM | > 100 µM |  |  |  |  |  |  |  |  |  | 
3 | Cc1ccc(S(=O)(=O)N/N=c2\c(C)c(C3=NS(=O)(=O)c4cc(S(N)(=O)=O)c(Cl)cc4N3)oc3c(Cl)cc(Cl)cc23)cc1 | > 100 µM | > 100 µM | 67.9 µM | > 100 µM | 22.9 µM | > 100 µM | 47.8 µM | > 100 µM | > 100 µM | > 100 µM |  |  |  |  |  |  |  |  |  | 
4 | CCOC(=O)Nc1cc2c(c(N)n1)N=C(c1ccccc1)[C@H](C)N2 |  | > 100 µM |  | 14.5 µM | > 100 µM |  | < 0.0001 µM | 22.9 µM | 17.3 µM | 13.6 µM | 17.9 µM | < 0.0001 µM | < 0.0001 µM | < 0.0001 µM |  |  |  |  |  | 
5 | O=C(CCl)NC(Cc1ccc(F)cc1)C(=O)O (stereo not drawn) | > 100 µM | > 100 µM | > 100 µM | > 100 µM | > 100 µM | > 100 µM | > 100 µM | > 100 µM | > 100 µM | > 100 µM |  |  |  |  |  |  |  |  |  | 
6 | Oc1c2c(c3c4c1N=CC=4CCN=3)-c1c(Br)cc(Br)cc1CCN2 | 22.6 µM | 15.5 µM | 12.2 µM |  | 6.03 µM | 7.66 µM | 2.62 µM | 29.8 µM | 15.4 µM | 13.5 µM |  |  |  |  |  |  |  |  |  | 
7 | CC(=O)O[C@H]1CC[C@@]2(C)C(=CC[C@@H]3[C@@H]2CC[C@]2(C)Nc4c(cnn4S(C)(=O)=O)C[C@@H]32)C1 | > 100 µM |  | > 100 µM | 47.4 µM |  | 57 µM | > 100 µM | > 100 µM | > 100 µM | > 100 µM |  |  |  |  |  |  |  |  |  | 
8 | COc1cc(N/N=C/C#N)cc(OC)c1OC | > 10 µM | > 10 µM | > 10 µM | > 10 µM | > 10 µM | > 10 µM | > 10 µM | > 10 µM | > 10 µM | > 10 µM |  |  |  |  |  |  |  |  |  | 
9 | CC[C@H](Nc1nc(N)nc(C)c1C#N)c1nc2cccc(NCc3ccc(C(=O)NO)cc3)c2c(=O)n1-c1ccccc1 | 3.97 µM | 3.19 µM |  | > 100 µM | 3.92 µM | 4.88 µM | 5.31 µM | 6.22 µM | 6.25 µM | 6.21 µM | 0.711 µM |  | 2.35 µM | 2.29 µM | 1.33 µM | 2.34 µM | 1.7 µM | 1.82 µM | 2.05 µM | 2.43 µM
10 | Cc1ccc([N+](=O)[O-])cc1NC(=O)C(=O)C(C(=O)c1ccccc1F)C1OC(=O)c2ccccc21 (stereo not drawn) | > 100 µM | 98.8 µM | 43.6 µM | > 100 µM | > 100 µM | > 100 µM | > 100 µM | > 100 µM | > 100 µM | > 100 µM |  |  |  |  |  |  |  |  |  | 
11 | NC(=S)Nc1cc(Cl)ccc1Cl | > 100 µM | > 100 µM | > 100 µM | > 100 µM | > 100 µM | > 100 µM | > 100 µM | > 100 µM | > 100 µM | > 100 µM |  |  |  |  |  |  |  |  |  | 
12 | N=c1nc2n(cc1F)[C@@H]1O[C@H](CO)[C@@H](O)[C@@H]1O2 | > 95 µM | > 100 µM | > 91.9 µM | 18.9 µM | > 100 µM | > 100 µM | > 96.9 µM | > 100 µM | > 100 µM | > 100 µM |  |  |  |  |  |  |  |  |  | 
13 | O=C1Nc2ccccc2S/C1=C\c1cccc(C(F)(F)F)c1 | > 100 µM | > 100 µM | > 100 µM | > 100 µM | > 100 µM | > 100 µM | > 100 µM | > 100 µM | > 100 µM | > 100 µM |  |  |  |  |  |  |  |  |  | 
14 | CC(C)OC(=O)C1=C(O)c2ccccc2S(=O)(=O)N1 | > 100 µM | > 100 µM | > 100 µM | > 100 µM | > 100 µM | > 100 µM | > 100 µM | > 100 µM | > 100 µM | > 100 µM |  |  |  |  |  |  |  |  |  | 
15 | C=C1CC[C@@H](Br)C(C)(C)[C@]12CCC(C)(O)C(Cl)C2 (stereo partly drawn) | 78.1 µM | 32.6 µM | 29.7 µM | 38.3 µM | 27.2 µM | 33.4 µM | 29.6 µM | 49.7 µM | 30.4 µM | 39.7 µM |  |  |  |  |  |  |  |  |  | 
16 | CCC1CN2CCC1CC2 (stereo not drawn) | > 100 µM | > 100 µM | > 100 µM | > 100 µM | > 100 µM | > 100 µM | > 100 µM | > 100 µM | > 100 µM | > 100 µM |  |  |  |  |  |  |  |  |  | 
17 | Cc1cc2c(cc1C)[n+](=O)c(C#N)c(Cl)n2[O-] | 45.2 µM | > 100 µM | 70.9 µM | 48.5 µM | 41.6 µM | 19.7 µM | 21.7 µM | 55.7 µM | 16.7 µM | 92.5 µM |  |  |  |  |  |  |  |  |  | 
18 | O=C1Nc2ccccc2S/C1=C\c1ccccc1C(F)(F)F | 92.3 µM | > 100 µM | > 100 µM | > 100 µM | > 100 µM | > 100 µM | > 100 µM | > 100 µM | > 100 µM | > 100 µM |  |  |  |  |  |  |  |  |  | 
19 | CCCCCCCCCCCCCCCC(=O)OCC1CCCN2CCCCC12 (stereo not drawn) | > 100 µM | > 100 µM | > 100 µM | > 100 µM | > 100 µM | > 100 µM | > 100 µM | > 100 µM | > 100 µM | > 100 µM |  |  |  |  |  |  |  |  |  | 
20 | CCOC(=O)[C@H]1Nc2c(cccc2[N+](=O)[O-])[C@H]2OCC[C@@H]12 | > 100 µM | > 100 µM | > 100 µM | > 100 µM | > 100 µM | > 100 µM | > 100 µM | > 100 µM | > 100 µM | > 100 µM |  |  |  |  |  |  |  |  |  | 
21 | CC1CCC(O)(C(C)(C(=O)O)c2ccccc2)CC1 (stereo not drawn) |  | > 100 µM | > 100 µM | > 100 µM | > 100 µM | > 100 µM |  | > 100 µM | > 100 µM | > 100 µM |  |  |  |  |  |  |  |  |  | 
22 | O=C(O)NCc1ccccc1 (tested in a mixture with another compound) | 60.6 µM | > 100 µM | > 77.6 µM | 45.9 µM | > 100 µM | > 100 µM | 43.3 µM | > 100 µM | > 100 µM | 33.7 µM |  |  |  |  |  |  |  |  |  | 
23 | C/C(=N\Oc1cc(Cl)ncn1)c1ccccn1 | > 100 µM | > 100 µM | > 100 µM | > 100 µM | > 100 µM | > 100 µM | > 100 µM | > 100 µM |  | > 100 µM |  |  |  |  |  |  |  |  |  | 
24 | O=C(N/C(=C\c1cccc([N+](=O)[O-])c1)c1nc2[nH]c(=S)[nH]c(=O)c2[nH]1)c1ccccc1 | > 100 µM | > 100 µM | > 100 µM | > 100 µM | > 100 µM | > 100 µM | > 100 µM | > 100 µM | > 100 µM | > 100 µM |  |  |  |  |  |  |  |  |  | 
